According to patent US20250163119A1, “COMPOUNDS FOR THE TREATMENT OF DIABETES OR OBESITY” (Eli Lilly and Company, priority 2023, published 2025):
*1 amine or outer side, *2 acyl side, *3 side chain or, on linkers, in order; H or OH if unused. Where a SMILES comes first, the peptide text is derived from it. Side-chain parts run from the residue outwards. [ ]: non-standard residue; d: D form. The star is where a group is joined. C20 diacid = O=C(O)CCCCCCCCCCCCCCCCCCC(=O)*; γGlu = O=C(O)[C@H](CCC(=O)[*:2])N[*:1]; NMeI = CC[C@H](C)[C@H](NC)C(=O)O; αMeL = CC(C)C[C@](C)(N)C(=O)O; AEEA = NCCOCCOCC(=O)O

Assays:
[1] = molecular target: T1, CRHR1 receptor (Y79 cells) (Homo sapiens, UniProt P34998); experiment: Human Y79 cAMP assay (native cell line expressing endogenous CRHR1); format: cell-based; settings: human Y79 cells (CRHR1, no detectable CRHR2); mean ± SE
T1 construct: host or cells: Y79 human retinoblastoma cells
T1 sequence (P34998 24-415): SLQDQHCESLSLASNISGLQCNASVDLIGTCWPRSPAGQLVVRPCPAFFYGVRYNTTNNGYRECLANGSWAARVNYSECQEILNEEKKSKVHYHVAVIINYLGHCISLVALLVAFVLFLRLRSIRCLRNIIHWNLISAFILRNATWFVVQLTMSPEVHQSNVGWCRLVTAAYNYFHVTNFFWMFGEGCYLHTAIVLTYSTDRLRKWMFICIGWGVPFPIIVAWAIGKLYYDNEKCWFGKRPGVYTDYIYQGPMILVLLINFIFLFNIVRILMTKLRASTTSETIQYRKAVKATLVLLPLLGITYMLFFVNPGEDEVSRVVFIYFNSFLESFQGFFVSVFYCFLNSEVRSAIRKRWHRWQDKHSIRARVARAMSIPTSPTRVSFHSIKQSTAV
Protocol: Y79 cells, a human retinoblastoma cell line, express a high level of human CRHR1 with no detectable CRHR2. A7r5 cells, a rat aortic smooth muscle cell line, only express CRHR2 receptor with no detectable CRHR1. The rat CRHR2 gene shares 93% homology of nucleotides sequences with human CRHR2 and responds to human UCN2. Therefore, these two native cell lines were used for additional characterization of polypeptide selectivity.
Y79 cells were grown in a suspension culture as recommended by ATCC in the media containing RPMI (Gibco Cat #11875093) and 20% FBS (Gibco dialyzed Cat #26400044). Y79 cells were incubated at 37° C. with 5% CO2. A subcultivation was performed by removing the supernatant after centrifugation and suspending the cell pellet in fresh medium (A subcultivation ratio was 1:5). […]
The amount of intracellular cAMP was quantitated using HTRF technology (Homogeneous Time Resolved Fluorescence; Cisbio) as per vendor instructions. […] The HTRF signal was immediately detected using an Envision plate reader (Perkin-Elmer) to calculate the ratio of fluorescence at 665 to 620 nm. […]
Raw fluorescence data for concentration curves of the peptides in Table 2 and Table 3 were converted to cAMP amount (pmol/well) using a cAMP standard curve generated for each experiment.

[2] = In vivo Diet Induced Obesity (DIO) model, chronic dose administration; set-up: species or system C57BL6 mice; settings: DIO mice; 30 nmol/kg s.c.; pooled data from four studies; mean
Text: The DIO model represents a pre-diabetic state that is obese. These animals, although not diabetic, display insulin resistance, dyslipidemia, and hepatic steatosis, all characteristics of metabolic syndrome, after being placed on a high fat (60% Kcal from fat) diet for 12 weeks (Surwit R S et al., Diet-induced type II diabetes in C57BL/6J mice. Diabetes 37(9): 1163-7 (1988)). Assessment of body weight change from start of study, fat mass change from start of study, lean mass change from start of study, and fasting glucose or glucose change from vehicle in same study substantially as set forth below. In the case of SEQ ID NO:55 combined with SEQ ID NO:25, tibialis anterior muscle weight at the end of the study is also reported as a measure of effect on muscle weight.
Male C57BL6 mice 22-24 weeks old (on high fat diet since 6 weeks of age, Jackson Laboratories 3800050; Bar Harbor, ME) are housed 1 per cage and maintained on D12492 chow (60% lard high fat diet: Research diets New Brunswick NJ) for 2 weeks in the vivarium and on a normal light cycle prior to experiment start. Animals were randomized by body weight to treatment groups using block randomization. On day 1 of experiment animals and food were weighed and recorded. Animals were separated in to two equal groups and started on separate days (data combined) to simplify the logistics of the study. Animals are given a single subcutaneous injection (s.c.) of the indicated treatment in 40 mM Tris HCl pH8.0+50 mM D-mannitol+0.02% polysorbate 80 on days 1(start), 4, 7, 10, and 13 of experiment at a volume of 10 ml/kg. […]
From study day 1 to study day 14 the animals were weighed daily prior to dose administration. […] The weight was recorded.
On Study Day 14, the animals were fasted overnight (approximately 16-18 hours) by placing them in a clean cage with a clean wire rack without food but allowed access to water, and on day 15 animals were subjected to fasting blood glucose measurement as follows; the tail of the animal was resected and a blood samples was collected and blood glucose was measured using an Accu-Chek Aviva glucose meter (Roche; Indianapolis, IN). Statistical significance ([…] vs. 0 dose; one way ANOVA Dunnett's post hoc) was calculated using GraphPad Prism software (La Jolla, Ca).
On study day 1 and study day 14 body composition was analyzed using Quantitative Nuclear Magnetic Resonance EchoMRI analyzer (EMR-166-s, EchoMRI; Houston Tx). […] Change in mass is calculated by subtraction of […].
On study day 15, following tail bleed for blood glucose, animals were sacrificed by C02 asphyxiation and the right tibialis anterior muscle was dissected. […] Weight was recorded and, in the case of relative weight, Tibialis anterior weight in milligrams was divided by body weight in grams. […]

Row | EC50 [1] | SMILES | Fat mass change [2] | body weight change [2] | fasting blood glucose (% reduction from vehicle) [2] | lean mass change [2]
1 | > 1e+07 pM | CC[C@H](C)[C@H](NC)C(=O)N[C@H](C(=O)N[C@H](C(=O)N[C@@H](CO)C(=O)N[C@@H](CC(C)C)C(=O)N[C@@H](CC(=O)O)C(=O)N[C@H](C(=O)N1CCC[C@H]1C(=O)N[C@H](C(=O)NCC(=O)N[C@@](C)(CC(C)C)C(=O)N[C@@H](CC(C)C)C(=O)N[C@@H](CCC(N)=O)C(=O)N[C@@H](CCCCN)C(=O)N[C@@H](CC(C)C)C(=O)N[C@H](C(=O)N[C@@H](CCC(=O)O)C(=O)N[C@@H](CCC(N)=O)C(=O)N[C@@H](CCC(=O)O)C(=O)N[C@@H](CCCCN)C(=O)N[C@@H](CCC(N)=O)C(=O)N[C@@H](CCC(=O)O)C(=O)N[C@@H](CCCCN)C(=O)N[C@@H](CCC(=O)O)C(=O)N[C@@H](CCCCN)C(=O)N[C@@H](CCC(N)=O)C(=O)N[C@@H](CCC(N)=O)C(=O)N[C@@H](C)C(=O)N[C@@H](CCCCNC(=O)COCCOCCNC(=O)COCCOCCNC(=O)CC[C@H](NC(=O)CCCCCCCCCCCCCCCCCCC(=O)O)C(=O)O)C(=O)N[C@@H](CCC(=O)O)C(=O)N[C@@H](CC(N)=O)C(=O)N[C@H](C(=O)N[C@@H](CCC(=O)O)C(=O)N[C@H](C(=O)N[C@@H](CC(C)C)C(=O)N[C@@H](C)C(=O)N[C@@H](CCC(N)=O)C(=O)N[C@H](C(N)=O)C(C)C)[C@@H](C)CC)[C@@H](C)O)[C@@H](C)CC)[C@@H](C)CC)C(C)C)[C@@H](C)O)C(C)C [SEQ ID NO: 49, (NMeI) VTSLDVPIG αMeL LQKLIEQEKQEKEKQQAK((2-[2-(2-Amino-ethoxy)-ethoxy]-acetyl)2-γE-CO-(CH2)18-CO2H)ENTEILAQV-NH2] (H-[NMeI]VTSLDVPIG[αMeL]LQKLIEQEKQEKEKQQAK([AEEA-AEEA-γGlu-C20 diacid])ENTEILAQV-NH2) |  |  |  | 
2 | > 1e+07 pM | CC[C@H](C)[C@H](NC)C(=O)N[C@H](C(=O)N[C@H](C(=O)N[C@@H](CO)C(=O)N[C@@H](CC(C)C)C(=O)N[C@@H](CC(=O)O)C(=O)N[C@H](C(=O)N1CCC[C@H]1C(=O)N[C@H](C(=O)NCC(=O)N[C@@](C)(CC(C)C)C(=O)N[C@@H](CC(C)C)C(=O)N[C@@H](CCC(N)=O)C(=O)N[C@@H](CCCCN)C(=O)N[C@@H](CC(C)C)C(=O)N[C@@H](CC(C)C)C(=O)N[C@@H](CCC(=O)O)C(=O)N[C@@H](CCC(N)=O)C(=O)N[C@@H](CCC(=O)O)C(=O)N[C@@H](CCCNC(=N)N)C(=O)N[C@@H](C)C(=O)N[C@@H](CCC(=O)O)C(=O)N[C@@H](CCCCN)C(=O)N[C@@H](C)C(=O)N[C@@H](CCCNC(=N)N)C(=O)N[C@@H](CCC(N)=O)C(=O)N[C@@H](CCC(N)=O)C(=O)N[C@@H](C)C(=O)N[C@@H](CCCCNC(=O)COCCOCCNC(=O)COCCOCCNC(=O)CC[C@H](NC(=O)CCCCCCCCCCCCCCCCCCC(=O)O)C(=O)O)C(=O)N[C@@H](CCC(=O)O)C(=O)N[C@@H](C)C(=O)N[C@@H](C)C(=O)N[C@@H](CCC(=O)O)C(=O)N[C@H](C(=O)N[C@@H](CC(C)C)C(=O)N[C@@H](C)C(=O)N[C@@H](CCC(N)=O)C(=O)N[C@H](C(N)=O)C(C)C)[C@@H](C)CC)[C@@H](C)CC)C(C)C)[C@@H](C)O)C(C)C [SEQ ID NO: 50, (NMeI) VTSLDVPIG αMeL LQKLLEQERAEKARQQAK((2-[2-(2-Amino-ethoxy)-ethoxy]-acetyl)2-γE-CO-(CH2)18-CO2H)EAAEILAQV-NH2] (H-[NMeI]VTSLDVPIG[αMeL]LQKLLEQERAEKARQQAK([AEEA-AEEA-γGlu-C20 diacid])EAAEILAQV-NH2) |  |  |  | 
3 |  | CC[C@H](C)[C@H](NC)C(=O)N[C@H](C(=O)N[C@@H](CC(C)C)C(=O)N[C@@H](CO)C(=O)N[C@@H](CC(C)C)C(=O)N[C@@H](CC(=O)O)C(=O)N[C@H](C(=O)N1CCC[C@H]1C(=O)N[C@H](C(=O)NCC(=O)N[C@@H](CC(C)C)C(=O)N[C@@H](CC(C)C)C(=O)N[C@@H](CCC(N)=O)C(=O)N[C@H](C(=O)N[C@@H](CC(C)C)C(=O)N[C@@H](CC(C)C)C(=O)N[C@@H](CCC(=O)O)C(=O)N[C@@H](CCC(N)=O)C(=O)N[C@@H](CCC(=O)O)C(=O)N[C@@H](CCCCN)C(=O)N[C@@H](CCC(N)=O)C(=O)N[C@@H](CCC(=O)O)C(=O)N[C@@H](CCCCN)C(=O)N[C@@H](CCC(=O)O)C(=O)N[C@@H](CCCCN)C(=O)N[C@@H](CCC(N)=O)C(=O)N[C@@H](CCC(N)=O)C(=O)N[C@@H](C)C(=O)N[C@@H](CCCCNC(=O)COCCOCCNC(=O)COCCOCCNC(=O)CC[C@H](NC(=O)CC[C@H](NC(=O)CCCCCCCCCCCCCCCCCCC(=O)O)C(=O)O)C(=O)O)C(=O)N[C@H](C(=O)N[C@@H](CC(N)=O)C(=O)N[C@@H](C)C(=O)N[C@@H](CCC(N)=O)C(=O)N[C@H](C(=O)N[C@@H](CC(C)C)C(=O)N[C@@H](C)C(=O)N[C@@H](CCC(N)=O)C(=O)N[C@H](C(N)=O)C(C)C)[C@@H](C)CC)[C@@H](C)O)[C@@H](C)CC)[C@@H](C)CC)C(C)C)C(C)C [SEQ ID NO: 54] (H-[NMeI]VLSLDVPIGLLQILLEQEKQEKEKQQAK([AEEA-AEEA-γGlu-γGlu-C20 diacid])TNAQILAQV-NH2) | -4.05 g | -3.75 g | 37.01% | 0.60 g
